From ChEMBL document CHEMBL5584341, “Discovery of Potent, Specific, and Orally Available NLRP3 Inflammasome Inhibitors Based on Pyridazine Scaffolds for the Treatment of Septic Shock and Peritonitis” (J Med Chem, 2024)
Calls of active or inactive are those of the source. The rule behind the calls is not given here.

What was measured:
[1] = Metabolic stability in human liver microsomes assessed as intrinsic clearance per g protein at 10 uM […] in presence of NADPH by LC-MS/MS analysis; format: ADME, Microsome
Mus musculus [2] = experiment: Antiinflammatory activity against LPS induced septic shock in BALB/c mouse assessed as reduction in serum IL-1beta level at 25 mg/kg, ip pretreated for 1 hr followed by LPS stimulation and measured after 3 hrs by ELISA; format: functional, organism-based; details: time 4.0 hrs
Mus musculus [3] = experiment: Antiinflammatory activity against LPS induced septic shock in BALB/c mouse assessed as increase in survival rate at 25 mg/kg, ip pretreated for 1 hr followed by LPS stimulation and measured after 72 hrs; format: functional; details: time 73 hrs
[4] = Inhibition of IL-1beta release in PMA-differentiated/ LPS and nigericin stimulated human THP-1 cells at 0.1 uM pretreated with LPS for 3 hrs followed by incubation with compound for 40 mins and later stimulated with nigericin for 40 mins by ELISA; format: functional; details: THP-1, 1.333 h, time 80 min
THP-1 [5] = experiment: Inhibition of nigericin induced ASC oligomerization in PMA differentiated human THP-1 cells at 5 to 80 nM pretreated with LPS for 3 hrs followed by compound addition for 40 mins prior to nigericin stimulation for 40 mins by gel electrophoresis analysis; format: functional, cell-based; details: dose 5-80 nM, time 80.0 min
[6] = target: T1, Interferon-inducible protein AIM2 (Mus musculus) (UniProt Q91VJ1); experiment: Inhibition of poly dA:dT stimulated AIM2 inflammasome activation in mouse BMDMs assessed as reduction in IL-1beta secretion at 0.1 to 10 uM pretreated with LPS for 3 hrs followed by compound addition for 40 mins prior to poly dA:dT stimulation for 6 hrs by ELISA; format: cell-based; details: BMDM, dose 0.1-10 µM, time 400.0 min
T1 sequence (whole entry): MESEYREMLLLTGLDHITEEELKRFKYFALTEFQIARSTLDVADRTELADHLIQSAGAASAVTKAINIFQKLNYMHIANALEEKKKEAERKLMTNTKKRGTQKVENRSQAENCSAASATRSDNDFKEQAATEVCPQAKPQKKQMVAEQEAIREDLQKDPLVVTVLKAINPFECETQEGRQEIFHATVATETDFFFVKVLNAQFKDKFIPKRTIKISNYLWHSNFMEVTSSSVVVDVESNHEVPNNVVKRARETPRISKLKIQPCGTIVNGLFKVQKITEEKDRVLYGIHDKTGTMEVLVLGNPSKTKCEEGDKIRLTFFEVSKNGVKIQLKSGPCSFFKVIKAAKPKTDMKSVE

[7] = target: NACHT, LRR and PYD domains-containing protein 3 (Mus musculus) (UniProt Q8R4B8); experiment: Inhibition of NLRP3 inflammasome activation in mouse BMDMs assessed as effect on TNF-alpha production at 2 to 31.25 nM pretreated with compound for 40 mins followed by LPS/ nigericin stimulation; format: cell-based; details: BMDM, dose 2-31.25 nM
Mus musculus [8] = experiment: Antiinflammatory activity against LPS induced septic shock in BALB/c mouse assessed as reduction in TNFalpha level at 25 mg/kg, ip pretreated for 1 hr followed by LPS stimulation and measured after 3 hrs by ELISA; format: functional, organism-based; details: time 4.0 hrs
[9] = target: T1, Interferon-inducible protein AIM2 (Mus musculus); experiment: Inhibition of poly dA:dT stimulated AIM2 inflammasome activation in mouse BMDMs assessed as reduction in IL-1beta secretion pretreated with LPS for 3 hrs followed by compound addition for 40 mins prior to poly dA:dT stimulation for 6 hrs by Western blotting analysis; format: cell-based; details: BMDM, time 400.0 min
[10] = target: NACHT, LRR and PYD domains-containing protein 3 (Mus musculus) (UniProt Q8R4B8); experiment: Inhibition of NLRP3 inflammasome activation in mouse BMDMs assessed as effect on TNF-alpha production at 2 to 31.25 nM pretreated with compound for 40 mins followed by LPS/ATP stimulation; format: cell-based; details: BMDM, dose 2-31.25 nM
[11] = MRT(0 to t) in BALB/c mouse at 5 mg/kg, po measured upto 24 hrs by LC-MS/MS analysis; format: ADME, organism-based; details: in vivo
LX-2 = experiment: Cytotoxicity against human LX-2 cells at 5 uM incubated for 72 hrs by MTT assay; format: toxicity, cell-based; details: lx-2, 72 h
BMDM = experiment: Reduction in LDH release in LPS/nigericin stimulated mouse BMDMs at 5 to 80 nM; format: functional, cell-based; details: dose 5-80 nM
[12] = AUC(0 to t) in BALB/c mouse at 5 mg/kg, iv measured upto 24 hrs by LC-MS/MS analysis; format: ADME, organism-based; details: in vivo
[13] = Half-life in BALB/c mouse at 5 mg/kg, iv measured upto 24 hrs by LC-MS/MS analysis; format: ADME, organism-based; details: in vivo
[14] = Oral bioavailability in BALB/c mouse at 5 mg/kg measured upto 24 hrs by LC-MS/MS analysis; format: ADME, organism-based; details: in vivo
[15] = target: NACHT, LRR and PYD domains-containing protein 3 (Mus musculus) (UniProt Q8R4B8); experiment: Inhibition of LPS/nigericin induced NLRP3 inflammasome activation in mouse BMDMs assessed as reduction in pyroptosis by measuring […] at 2 to 31.25 nM; format: cell-based; details: BMDM, dose 2-31.25 nM
[16] = target: NLR family CARD domain-containing protein 4 (Mus musculus) (UniProt Q3UP24); experiment: Inhibition of flagellin stimulated NLRC4 inflammasome activation in mouse BMDMs assessed as reduction in IL-1beta secretion at 0.1 to 10 uM pretreated with LPS for 3 hrs followed by compound addition for 40 mins prior to flagellin stimulation for 6 hrs by ELISA; format: cell-based; details: BMDM, dose 0.1-10 µM, time 400.0 min
[17] = target: NACHT, LRR and PYD domains-containing protein 3 (Mus musculus) (UniProt Q8R4B8); experiment: Inhibition of NLRP3 inflammasome activation in LPS/nigericin stimulated mouse BMDMs assessed as reduction in IL-1beta release pretreated with LPS for 3 hrs followed by compound addition for 40 mins prior to nigericin stimulation for 40 mins by Western blotting analysis; format: cell-based; details: BMDM, time 80.0 min
Cytochrome P450 2C19 = Cytochrome P450 2C19 (Homo sapiens, UniProt P33261); experiment: Inhibition of human CYP2C19 upto 10 uM relative to control; format: ADME
NRK-49F = experiment: Cytotoxicity against rat NRK-49F cells at 5 to 20 uM incubated for 72 hrs by MTT assay; format: toxicity, cell-based; details: dose 5-20 µM
[18] = Tmax in BALB/c mouse at 5 mg/kg, iv measured upto 24 hrs by LC-MS/MS analysis; format: ADME, organism-based; details: in vivo
Cytochrome P450 2C9 = Cytochrome P450 2C9 (Homo sapiens, UniProt P11712); experiment: Inhibition of human CYP2C9 upto 10 uM relative to control; format: ADME
Mus musculus [19] = experiment: Inhibition of MSU crystal induced peritonitis in BALB/c mouse assessed as reduction in neutrophil recruitment at 50 to 100 mg/kg, ip pretreated with LPS for 3 hrs followed by compound addition prior to MSU stimulation for 6 hrs by ELISA; format: functional, organism-based; details: dose 50-100 mg/kg
Mus musculus [20] = experiment: Inhibition of MSU crystal induced peritonitis in BALB/c mouse assessed as reduction in serum IL-1beta level at 50 to 100 mg/kg, ip pretreated with LPS for 3 hrs followed by compound addition prior to MSU stimulation for 6 hrs by ELISA; format: functional, organism-based; details: dose 50-100 mg/kg
HepG2 = experiment: Cytotoxicity against human HepG2 cells at 5 to 20 uM incubated for 72 hrs by MTT assay; format: toxicity, cell-based; details: hepg2, 72 h, dose 5-20 µM
THP-1 [21] = experiment: Inhibition of nigericin induced ASC specks formation in PMA differentiated human THP-1 cells at 5 to 80 nM pretreated with LPS for 3 hrs followed by compound addition for 40 mins prior to nigericin stimulation for 40 mins by Western blotting analysis; format: functional, cell-based; details: dose 5-80 nM, time 80.0 min

Sequence of NACHT, LRR and PYD domains-containing protein 3 (Mus musculus) (Q8R4B8 whole entry, the tested form may be a part): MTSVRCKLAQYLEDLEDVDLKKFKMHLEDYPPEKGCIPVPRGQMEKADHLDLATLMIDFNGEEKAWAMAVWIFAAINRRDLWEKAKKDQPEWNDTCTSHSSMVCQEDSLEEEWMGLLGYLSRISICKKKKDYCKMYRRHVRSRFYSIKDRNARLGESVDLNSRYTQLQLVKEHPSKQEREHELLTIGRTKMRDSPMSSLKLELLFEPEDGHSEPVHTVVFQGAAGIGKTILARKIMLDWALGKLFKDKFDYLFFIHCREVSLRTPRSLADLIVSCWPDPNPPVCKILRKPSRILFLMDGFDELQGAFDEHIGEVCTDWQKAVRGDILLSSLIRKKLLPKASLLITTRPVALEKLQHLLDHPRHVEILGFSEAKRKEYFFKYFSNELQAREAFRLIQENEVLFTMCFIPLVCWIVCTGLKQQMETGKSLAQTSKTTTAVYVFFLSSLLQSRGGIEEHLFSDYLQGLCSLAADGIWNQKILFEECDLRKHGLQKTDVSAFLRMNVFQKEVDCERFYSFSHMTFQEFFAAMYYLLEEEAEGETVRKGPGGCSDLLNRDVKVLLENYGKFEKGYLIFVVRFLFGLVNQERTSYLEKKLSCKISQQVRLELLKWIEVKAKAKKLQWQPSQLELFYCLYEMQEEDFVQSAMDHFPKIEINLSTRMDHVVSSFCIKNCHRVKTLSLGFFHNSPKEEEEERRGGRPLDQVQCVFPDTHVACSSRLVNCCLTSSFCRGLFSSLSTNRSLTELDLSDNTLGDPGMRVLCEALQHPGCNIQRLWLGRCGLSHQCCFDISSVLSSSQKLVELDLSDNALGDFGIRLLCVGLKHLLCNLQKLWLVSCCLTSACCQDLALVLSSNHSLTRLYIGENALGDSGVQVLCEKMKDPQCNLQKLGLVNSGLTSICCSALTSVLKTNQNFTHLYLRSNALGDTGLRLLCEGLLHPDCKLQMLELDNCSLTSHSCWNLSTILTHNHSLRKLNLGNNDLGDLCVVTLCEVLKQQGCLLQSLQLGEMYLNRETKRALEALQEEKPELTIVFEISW
Sequence of Cytochrome P450 2C19 (P33261 whole entry): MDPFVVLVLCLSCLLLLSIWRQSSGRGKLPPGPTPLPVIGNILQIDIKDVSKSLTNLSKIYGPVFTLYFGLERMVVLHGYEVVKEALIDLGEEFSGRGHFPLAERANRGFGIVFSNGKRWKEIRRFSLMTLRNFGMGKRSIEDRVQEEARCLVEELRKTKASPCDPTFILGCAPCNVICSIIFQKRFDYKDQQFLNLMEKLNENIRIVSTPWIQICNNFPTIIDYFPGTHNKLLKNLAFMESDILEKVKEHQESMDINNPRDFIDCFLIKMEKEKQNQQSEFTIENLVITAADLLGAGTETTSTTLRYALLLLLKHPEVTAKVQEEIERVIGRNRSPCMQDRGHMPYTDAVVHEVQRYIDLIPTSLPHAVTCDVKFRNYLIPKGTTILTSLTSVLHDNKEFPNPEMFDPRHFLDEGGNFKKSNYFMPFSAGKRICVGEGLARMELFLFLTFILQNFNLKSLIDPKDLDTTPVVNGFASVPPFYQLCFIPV
Sequence of Cytochrome P450 2C9 (P11712 whole entry): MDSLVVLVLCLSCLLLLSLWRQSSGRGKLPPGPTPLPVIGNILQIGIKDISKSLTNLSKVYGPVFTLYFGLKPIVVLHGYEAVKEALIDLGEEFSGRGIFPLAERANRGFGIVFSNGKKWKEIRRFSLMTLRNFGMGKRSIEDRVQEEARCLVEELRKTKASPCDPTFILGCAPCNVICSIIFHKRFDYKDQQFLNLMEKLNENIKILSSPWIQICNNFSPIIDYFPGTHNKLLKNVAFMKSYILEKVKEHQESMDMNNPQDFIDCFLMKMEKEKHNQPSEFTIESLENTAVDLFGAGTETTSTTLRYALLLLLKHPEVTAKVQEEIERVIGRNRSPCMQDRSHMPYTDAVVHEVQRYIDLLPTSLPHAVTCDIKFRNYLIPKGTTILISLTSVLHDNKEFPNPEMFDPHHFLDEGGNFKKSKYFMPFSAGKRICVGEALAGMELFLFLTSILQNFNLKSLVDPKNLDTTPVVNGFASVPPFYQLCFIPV
Sequence of NLR family CARD domain-containing protein 4 (Mus musculus) (Q3UP24 whole entry, the tested form may be a part): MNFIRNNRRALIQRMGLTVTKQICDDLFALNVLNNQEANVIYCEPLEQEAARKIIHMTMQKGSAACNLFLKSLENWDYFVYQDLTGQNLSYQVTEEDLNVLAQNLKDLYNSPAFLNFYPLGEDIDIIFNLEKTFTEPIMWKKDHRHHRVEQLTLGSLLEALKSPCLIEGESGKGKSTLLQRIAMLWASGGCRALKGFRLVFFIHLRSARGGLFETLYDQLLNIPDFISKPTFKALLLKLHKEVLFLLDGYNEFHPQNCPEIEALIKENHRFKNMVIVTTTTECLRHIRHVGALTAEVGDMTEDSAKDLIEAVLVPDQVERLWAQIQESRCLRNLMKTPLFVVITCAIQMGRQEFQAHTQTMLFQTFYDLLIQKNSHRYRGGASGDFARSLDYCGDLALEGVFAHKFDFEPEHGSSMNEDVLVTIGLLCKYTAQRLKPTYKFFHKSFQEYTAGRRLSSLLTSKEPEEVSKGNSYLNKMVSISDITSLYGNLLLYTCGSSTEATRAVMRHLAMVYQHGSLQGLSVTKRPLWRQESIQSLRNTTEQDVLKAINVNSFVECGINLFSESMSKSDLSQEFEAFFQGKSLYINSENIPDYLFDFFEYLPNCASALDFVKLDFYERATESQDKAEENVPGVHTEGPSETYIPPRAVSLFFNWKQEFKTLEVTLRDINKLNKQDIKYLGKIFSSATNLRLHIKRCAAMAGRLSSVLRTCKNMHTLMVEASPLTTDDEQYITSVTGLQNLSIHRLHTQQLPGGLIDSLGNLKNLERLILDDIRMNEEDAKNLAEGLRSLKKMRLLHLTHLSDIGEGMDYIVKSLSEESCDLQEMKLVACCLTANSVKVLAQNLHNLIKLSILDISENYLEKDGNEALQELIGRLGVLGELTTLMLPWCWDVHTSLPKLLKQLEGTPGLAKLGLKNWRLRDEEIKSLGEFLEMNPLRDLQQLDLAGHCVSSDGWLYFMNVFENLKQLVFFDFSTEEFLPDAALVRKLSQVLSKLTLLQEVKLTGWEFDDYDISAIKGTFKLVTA

In the case of `OCCN1CCC[C@@H](Nc2nnc(-c3ccc4occc4c3O)c3c2C2CCC3CC2)C1`, the intrinsic clearance [1] is reported as less than 12 mL/min, the Activity (Mus musculus [2]) is reported as “Active” and the Activity (Mus musculus [3]) is reported as 82%. For the same compound, the inhibition at 0.1 µM [4] was 98.9%, the inhibition (THP-1 [5]) was “Active” and the inhibition [6] was “inactive”. For the same compound, the inhibition [7] was “inactive”, the Activity (Mus musculus [8]) was “Active” and the inhibition [9] was “inactive”. For the same compound, the inhibition [10] was “inactive”, the MRT last at 24 h [11] was 6.07 h and the Activity (LX-2) was “Non-Toxic”. For the same compound, the Activity (BMDM) was “Dose-Dependent Effect”, the AUC(0-t) at 24 h [12] was 9520 ng·h/mL and the half-life [13] was 211 min. For the same compound, the bioavailability [14] was 62%, the inhibition [15] was “Active” and the inhibition [16] was “inactive”. The inhibition [17] was “Dose-Dependent Effect”, the “inhibition (INH)” value (Cytochrome P450 2C19) was “Not Active” and the Activity (NRK-49F) was “Non-Toxic”. For the same compound, the Tmax [18] was 4.98 min, the “inhibition (INH)” value (Cytochrome P450 2C9) was “Not Active” and the inhibition (Mus musculus [19]) was “Active”. For the same compound, the inhibition (Mus musculus [20]) was “Active”, the Activity (HepG2) was “Non-Toxic” and the inhibition (THP-1 [21]) was “Active”.
